The values below come from paper PMC6477744, “Mebendazole-induced M1 polarisation of THP-1 macrophages may involve DYRK1B inhibition” (BMC Research Notes, 2019).

The experiment concerns the target Dual specificity tyrosine-phosphorylation-regulated kinase 1B (DYRK1B) (Homo sapiens, UniProt Q9Y463). Kind of experiment: DiscoverX competition binding assay (DNA-tagged kinase, 11-point Kd); also enzyme inhibition IC50 […] at […] ATP.

Sequence of Dual specificity tyrosine-phosphorylation-regulated kinase 1B (DYRK1B) (Q9Y463 whole entry): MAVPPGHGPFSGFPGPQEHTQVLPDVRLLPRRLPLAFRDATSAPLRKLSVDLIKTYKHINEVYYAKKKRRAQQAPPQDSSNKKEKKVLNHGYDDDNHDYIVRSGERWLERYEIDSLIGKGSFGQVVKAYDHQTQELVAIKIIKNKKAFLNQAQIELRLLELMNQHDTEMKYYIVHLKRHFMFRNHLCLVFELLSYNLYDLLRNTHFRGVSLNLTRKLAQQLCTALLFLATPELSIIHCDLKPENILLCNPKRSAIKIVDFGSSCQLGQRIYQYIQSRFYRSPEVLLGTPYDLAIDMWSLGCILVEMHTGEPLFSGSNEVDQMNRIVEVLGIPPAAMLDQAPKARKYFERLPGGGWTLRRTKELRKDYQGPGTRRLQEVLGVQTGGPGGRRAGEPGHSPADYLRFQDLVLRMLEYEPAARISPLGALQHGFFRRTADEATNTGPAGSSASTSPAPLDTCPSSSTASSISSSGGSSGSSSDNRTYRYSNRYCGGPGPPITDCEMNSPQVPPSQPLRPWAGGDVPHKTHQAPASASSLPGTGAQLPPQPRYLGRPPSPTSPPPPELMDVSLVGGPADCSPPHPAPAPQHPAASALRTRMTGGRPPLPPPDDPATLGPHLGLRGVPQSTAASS

What is called Kd is the concentration at which binding is half-saturated. Consider `COC(=O)Nc1nc2ccc(C(=O)c3ccccc3)cc2[nH]1` [MBZ, mebendazole], for which binding was characterised by a dissociation constant (Kd) of 7 nM.
